PMC9295539 (Antimicrobial Agents and Chemotherapy, 2022)
Where two headings read alike, the source gives them in different places.

Columns and labels:
[1] = system: Giardia lamblia GS clone H7; experiment: G. lamblia GS clone H7 trophozoite growth, ATP-based bioluminescence assay (BacTiter-Glo), 1,536-well; format: cell-based; details: for Selectivity index (CC50/EC50): HEK293T CC50 / G. lamblia GS clone H7 EC50
Procedure: (§1) Compounds were screened at 5 μM with metronidazole (40 μM) as an inhibitor control and dimethyl sulfoxide (DMSO) as a neutral control. […] These primary hits were immediately assayed for reconfirmation and mammalian cytotoxicity against HEK293T cells in an 8-point dose-response format.
The primary screen was conducted at 5 μM. […] All source plates were 384-well acoustic, transfer-compatible plates with compounds prediluted in DMSO at either 2 mM or 10 mM. […] Primary screening was done with a single replicate, whereas dose-response testing was carried out in triplicate.
To prevent attachment to the bottle and tubing of the dispenser cassette, the bottle containing the culture was kept on ice throughout the dispensing process. […] The bags were heat sealed and the anaerobic generator was activated according to the manufacturer’s instructions. […] Luminescence was read on a ViewLux uHTS microplate imager (PerkinElmer) with medium-sensitivity luminescence at 30 s of exposure.
(§2) Relative luminescence unit (RLU) values were analyzed in Genedata Screener (v13.0-Standard). RLU values were normalized to neutral controls minus inhibitors (DMSO-treated wells minus metronidazole-treated wells). For single-point primary assay plates, an additional run-wise median correction was applied to reduce screen artifacts, whereas no corrections were applied to triplicate dose-response plates. For the mammalian cytotoxicity assays, RLU values were uploaded into Genedata Screener, and the data were normalized to those for DMSO-treated wells minus puromycin-treated wells.

[2] = HEK293T cytotoxicity counterscreen, luminescent ATP viability assay; details: human
Procedure: as §1
(§3) Experimental details for the assays were described previously ([50]). […] Assays were performed as previously reported ([51]).
as §2

[3] = system: G. lamblia CBG99 (assemblage A); experiment: G. lamblia CBG99 luciferase strain cell growth inhibition assay; format: cell-based, Giardia lamblia; details: for inhibition of G. lamblia growth / inhibition at 5 µM: G. lamblia CBG99, compound at 5 μM; for inhibition at 5 µM / EC50: Giardia duodenalis; for EC50: assemblage A, read-out: EC50 against G. lamblia strain CBG99
Procedure: Subsequent assays, including the mouse model of infection, used the G. lamblia click beetle green (CBG99) strain, which was grown and assayed as previously described ([11], [49]).
In vitro reconfirmation and expanded tests against EGFR-TKIs using the G. lamblia CBG99 strain were performed as previously described ([11]). […] The PK studies were performed in groups of 3 mice per compound. […] All animal experiments were approved by the Institutional Animal Care and Use Committees at the University of Washington.

HEK293T cells = experiment: in vitro
Procedure: as §1, §3, §2

[4] = system: G. lamblia WB6 (assemblage A); experiment: G. lamblia WB6 cell growth inhibition assay; format: cell-based; details: Giardia duodenalis, read-out: EC50 against G. lamblia strain WB6
[5] = system: metronidazole-resistant 713-M3 strain; experiment: Metronidazole-resistant G. lamblia 713-M3 cell growth inhibition assay; format: cell-based; details: Giardia duodenalis, read-out: EC50 against G. lamblia strain 713-M3
[6] = Giardia duodenalis, 48 h, 8-point dose response, triplicate, read-out: 48-h Giardia GS clone H7 EC50
[7] = 48 h, 8-point dose response, triplicate, read-out: 48-h Giardia GS clone H7 EC50
[8] = Giardia duodenalis, Table 2, assemblage B, read-out: EC50 against G. lamblia strain GS clone 7

| SMILES | EC50 [1, 6] [µM] | Selectivity index (CC50/EC50) [1] | CC50 at 72 h ([2]; HEK293T cells) [µM] | further results |
| --- | --- | --- | --- | --- |
| O=[N+]([O-])c1ccc(-c2nc3ccccc3[nH]2)o1 [2-(5-Nitro-2-furyl) benzimidazole] | 5.8 ± 0.13 | >4 | > 25 | – |
| N#CC(C#N)=Cc1ccc(O)c(O)c1 [AG-18] | – | – | – | inhibition of G. lamblia growth [3]: ≤ 50% |
| N#C/C(=C\c1ccc(O)c(O)c1)C(=O)NCc1ccccc1 [AG-490] | – | – | – | inhibition of G. lamblia growth [3]: ≤ 50% |
| COc1cc2ncnc(Nc3cccc(Cl)c3)c2cc1OC [AG-1478] | – | – | – | inhibition of G. lamblia growth [3]: ≤ 50% |
| CNC(=O)CN1CCC(Oc2cc3c(Nc4cccc(Cl)c4F)ncnc3cc2OC)CC1 [AZD8931] | – | – | – | inhibition at 5 µM [3]: ≤ 50% |
| Cn1c([N+](=O)[O-])cnc1C(O)c1cc(C(C)(C)C)ccc1O (stereo not shown) [Abunidazole] | – | – | – | EC50 [1, 7]: 1.08 ± 0.02 µM; CC50 (HEK293T cells): > 25 µM |
| CC(=O)Nc1ncc([N+](=O)[O-])s1 [Aminitrozole] | 7.11 ± 0.28 | >3 | > 25 | – |
| Cn1c([N+](=O)[O-])cnc1/C=C/c1ccnc(N)n1 [Azanidazole] | 0.72 ± 0.06 | >35 | > 25 | – |
| Cc1ncc([N+](=O)[O-])n1CCOC(=O)c1ccccc1 [Benzoyl metronidazole] | 2.43 ± 0.23 | >10 | > 25 | – |
| CS(=O)(=O)Nc1ccc(C(=O)O[C@@H](Cc2c(Cl)c[n+]([O-])cc2Cl)c2ccc(OC(F)F)c(OCC3CC3)c2)cc1OCC1CC1 [CHF-6001] | 2.03 ± 0.1 | >12 | > 25 | – |
| COC(=S)NCCn1c([N+](=O)[O-])cnc1C [Carnidazole] | 3.01 ± 0.06 | >8 | > 25 | – |
| CSc1ccc(OCc2ncc([N+](=O)[O-])n2C)cc1 [Fexinidazole] | 6.39 ± 0.16 | >4 | > 25 | – |
| Cc1ncc([N+](=O)[O-])n1CCO [Metronidazole] | 7.12 ± 0.06 | >3 | – | EC50 [1, 8]: 7.12 ± 0.06 µM; EC50 [3]: 2.87 ± 0.34 µM; EC50 ([4]; assemblage A): 2.33 ± 0.06 µM; EC50 [5]: > 25 µM; CC50 at 72 h [2]: > 25 µM |
| Cn1c([N+](=O)[O-])cnc1/C=N/N1CC(CN2CCOCC2)OC1=O (stereo not shown) [Moxnidazole] | 6.11 ± 0.11 | >4 | > 25 | – |
| O=C1NCCN1c1ncc([N+](=O)[O-])s1 [Niridazole] | 6.42 ± 0.06 | >4 | – | CC50 at 72 h [2]: > 25 µM |
| CC(=O)Oc1ccccc1C(=O)Nc1ncc([N+](=O)[O-])s1 [Nitazoxanide] | 6.45 ± 0.11 | >4 | > 25 | – |
| Cc1ncc([N+](=O)[O-])n1CC(O)CCl (stereo not shown) [Ornidazole] | 1.82 ± 0.04 | >14 | – | CC50 at 72 h [2]: > 25 µM |

| SMILES | EC50 [1, 6] [µM] | Selectivity index (CC50/EC50) [1] | CC50 at 72 h ([2]; HEK293T cells) [µM] | further results |
| --- | --- | --- | --- | --- |
| COc1cc2ncnc(Nc3cccc(Br)c3)c2cc1OC.Cl [PD153035-HCl] | – | – | – | inhibition of G. lamblia growth [3]: ≤ 50% |
| C=CC(=O)Nc1ccc2ncnc(Nc3cccc(Br)c3)c2c1 [PD168393] | – | – | – | inhibition of G. lamblia growth [3]: ≤ 50% |
| CS(=O)(=O)OCCN(CCBr)c1c(C(=O)NCCOP(=O)(O)O)cc([N+](=O)[O-])cc1[N+](=O)[O-] [PR-104] | – | >13 | – | EC50 ([1]; Giardia duodenalis, 48 h, read-out: 48-h Giardia GS clone H7 EC50): 1.98 ± 0.07 µM; CC50 at 72 h [2]: > 25 µM |
| Cc1ncc([N+](=O)[O-])n1CCc1ccncc1 [Panidazole] | 1.85 ± 0.68 | >14 | > 25 | – |
| CC(=O)C[C@H]1CCCCN1 [Pelletierine] | 20.3 ± 0.07 | >1 | – | EC50 [1, 8]: 20.3 ± 0.07 µM; EC50 [3]: > 25 µM; EC50 [4]: > 25 µM; EC50 [5]: > 25 µM; CC50 [2]: > 25 µM |
| CCOC(=O)/C(=C/c1ncc([N+](=O)[O-])n1C)C(C)=O [Propenidazole] | – | – | – | EC50 [1, 7]: 2.55 ± 0.04 µM; CC50 (HEK293T cells): 16.9 ± 0.05 µM |
| CCCN(CCC)c1ccc(/N=N/c2ccccc2C(=O)O)cc1 [Propyl red] | 5.78 ± 0.07 | >4 | > 25 | – |
| Cn1c([N+](=O)[O-])cnc1N1CCN(S(C)(=O)=O)C1=O [Satranidazole] | 2.49 ± 0.04 | >10 | > 25 | – |
| Cc1ncc([N+](=O)[O-])n1CC(C)O (stereo not shown) [Secnidazole] | 6.57 ± 0.09 | >4 | – | CC50 at 72 h [2]: > 25 µM |
| CCS(=O)(=O)CCn1c([N+](=O)[O-])cnc1C [Tinidazole] | 5.7 ± 0.08 | >4 | – | CC50 at 72 h [2]: > 25 µM |
| CN(C)C/C=C/C(=O)Nc1cc2c(Nc3ccc(F)c(Cl)c3)ncnc2cc1O[C@H]1CCOC1 [afatinib] | – | – | – | inhibition at 5 µM [3]: ≤ 50% |
| C=CC(=O)Nc1cccc(Oc2nc(Nc3ccc(N4CCN(C)CC4)c(F)c3)nc3[nH]ccc23)c1.O=C(O)/C=C\C(=O)O [avitinib maleate] | – | – | – | inhibition of G. lamblia growth [3]: ≤ 50% |
| COc1cc2ncnc(Nc3ccc(F)c(Cl)c3)c2cc1NC(=O)/C=C/CN1CCCCC1 [dacomitinib] | – | – | – | inhibition at 5 µM [3]: ≤ 50% |
| C#Cc1cccc(Nc2ncnc3cc(OCCOC)c(OCCOC)cc23)c1 [erlotinib] | – | – | – | inhibition at 5 µM [3]: ≤ 50% |
| CS(=O)(=O)CCNCc1ccc(-c2ccc3ncnc(Nc4ccc(OCc5cccc(F)c5)c(Cl)c4)c3c2)o1 [lapatinib ditosylate] | – | – | – | inhibition at 5 µM [3]: ≤ 50% |
| CCOc1cc2ncc(C#N)c(Nc3ccc(OCc4ccccn4)c(Cl)c3)c2cc1NC(=O)/C=C/CN(C)C [neratinib] | – | – | – | inhibition at 5 µM [3]: ≤ 50% |
| C=CC(=O)Nc1cccc(Nc2nc(Nc3ccc(N4CCN(C(C)=O)CC4)cc3OC)ncc2C(F)(F)F)c1 [rociletinib] | – | – | – | inhibition at 5 µM [3]: ≤ 50% |
